Earlier results, collected in US8653051B2, “Use of 3-alpha-androstanediol in combination with a PDE5 inhibitor, in the treatment of sexual dysfunction” (Emotional Brain B.V., priority 2006, dated 2014).

Conditions: typical value after administration

Compound: CCCc1nc(C)c2c(=O)nc(-c3cc(S(=O)(=O)N4CCN(CC)CC4)ccc3OCC)[nH]n12.Cl [vardenafil, piperazine, 1-[[3-(1,4-dihydro-5-methyl-4-oxo-7-propylimidazo[5,1-f][1,2,4]triazin-2-yl)-4-ethoxyphenyl]sulfonyl]-4-ethyl-, monohydrochloride]
- time to reach peak plasma concentration after administration: about 1 hour
